Results reported in patent US10815197B2, “N-sulfonyl benzamides as voltage-gated sodium channel inhibitors” (SHANGHAI HAIYAN PHARMACEUTICAL TECHNOLOGY CO., LTD., priority 2016, dated 2020).
Where two headings read alike, the source gives them in different places.

Molecular target: T1, hNav1.7 (Homo sapiens, UniProt Q15858)
T1 construct: host or cells: CHO
Assay: Manual patch clamp experiment hNav1.7 (CHO-hNav1.7 stable cell line)
Type: cell-based
Conditions: for inhibition at 0.1 µM: read-out: Inhibition of Nav1.7 100 nM(%); for inhibition at 1 µM: read-out: Inhibition of Nav1.7 1000 nM(%); for inhibitory activity against Nav1.7 (in words): comparison from Table 1
Text: Assay 1: Manual Patch Clamp Experiment of Sodium Ion (hNav1.7, hNav1.5 and hNaV1.8) and Calcium Ion (hCav3.2) Channels
hNav1.7, hNav1.5 Manual Patch Clamp Experiment:
Patch voltage clamp electrophysiology allows for the direct measurement and quantification of current block of voltage-gated sodium channels (NaV's), and allows the determination of the time and voltage-dependence of block which has been interpreted as differential binding to the resting, open and inactivated states of the sodium channel to reflect the compound's inhibitory or activating effects (Hille, B., Journal of General Physiology (1977), 69: 497-515).
Representative compounds of the present invention were subject to a manual patch clamp experiment and the purpose of this study was to test the effect of compounds on this ion channel current on a stable cell line transfected with a specific ion channel using a manual patch clamp method. The used stable cell lines CHO-hNav1.7 and HEK-hNav1.5 were from Genionics and WuXi Apptec (Shanghai) respectively.
Manual patch clamp experimental program is as follows:
(1) Preparation of solutions and compounds: The whole cell patch clamp technique was used to record hNav1.7 and hNav1.5 currents. In the experiment, the composition of extracellular fluid (mM): HEPES: 5, NaCl: 40, KCl: CaCl2: 1, MgCl2: 1, CdCl2: 0.1, TEA-Cl: 20. The pH was adjusted to 7.3 with NaOH and the osmotic pressure was adjusted to 310-320 mOsm with sucrose, filtered and stored at 4° C. The composition of the intracellular fluid (mM): HEPES: 10, NaCl: 10, CsOH: 5, CsF: 140, EGTA: 1. The pH was adjusted to 7.3 with CsOH and the osmotic pressure was adjusted to 280-290 mOsm with sucrose, filtered and stored at −20° C.
The positive control and the test compound were firstly dissolved in 100% DMSO (Sigma-Aldrich, D2650), configured as stock solution at a concentration (100 nM, 1000 nM).) The above stock solution was serially diluted with DMSO prior to the experiment, the solution was further diluted with extracellular solution to obtain the test solution of the desired concentration.
(2) Manual Patch Clamp Experiment: The cell suspension was added to a 35 mm petri dish and placed on an inverted microscope stage. The cells were perfused with an extracellular fluid and the flow rate was 1-2 mL/min after cell adherence. The glass microelectrode was prepared in two steps by a microelectrode puller with an inlet water resistance of 2-5 MΩ. A/D-D/A digital-analog conversion was performed by Digidata 1440 (Molecular Devices) and pCLAMP software (version 10.2, Molecular Devices) for stimulation and signal acquisition; the signal was amplified by patch clamp amplifier (Multiclamp 700B, Molecular Devices), and filtering is 4 KHz.
Two different voltage stimulation procedures were used in the hNav1.7 and hNav1.5 manual patch clamp experiments.
One is the inactivation stimulation program, the clamp potential is set at V1/2 of the corresponding channel, i.e., about 50% of the channels are inactivated, then the voltage is applied to −120 mV for 50 ms, then depolarized to −10 mV for 20 ms leading to sodium current, and finally returned to the clamp potential. This stimulation program can also be called channel state-dependent voltage stimulation program.
The other is the non-inactivation stimulation program, the clamp potential is maintained at −120 mV, voltage stimulation is given to −10 mV for 20 ms leading to sodium current, and finally returned to the clamp potential. That is, all channels have not experienced inactivation status, but activate directly from the resting state under the conditions of the stimulation program.
The time intervals of these two voltage stimulation programs were 10 s. The inhibitory effect of the compound was calculated by the change of the current before and after dosing, the IC50 value was fitted by the Hill equation.

T1 sequence (Q15858 whole entry): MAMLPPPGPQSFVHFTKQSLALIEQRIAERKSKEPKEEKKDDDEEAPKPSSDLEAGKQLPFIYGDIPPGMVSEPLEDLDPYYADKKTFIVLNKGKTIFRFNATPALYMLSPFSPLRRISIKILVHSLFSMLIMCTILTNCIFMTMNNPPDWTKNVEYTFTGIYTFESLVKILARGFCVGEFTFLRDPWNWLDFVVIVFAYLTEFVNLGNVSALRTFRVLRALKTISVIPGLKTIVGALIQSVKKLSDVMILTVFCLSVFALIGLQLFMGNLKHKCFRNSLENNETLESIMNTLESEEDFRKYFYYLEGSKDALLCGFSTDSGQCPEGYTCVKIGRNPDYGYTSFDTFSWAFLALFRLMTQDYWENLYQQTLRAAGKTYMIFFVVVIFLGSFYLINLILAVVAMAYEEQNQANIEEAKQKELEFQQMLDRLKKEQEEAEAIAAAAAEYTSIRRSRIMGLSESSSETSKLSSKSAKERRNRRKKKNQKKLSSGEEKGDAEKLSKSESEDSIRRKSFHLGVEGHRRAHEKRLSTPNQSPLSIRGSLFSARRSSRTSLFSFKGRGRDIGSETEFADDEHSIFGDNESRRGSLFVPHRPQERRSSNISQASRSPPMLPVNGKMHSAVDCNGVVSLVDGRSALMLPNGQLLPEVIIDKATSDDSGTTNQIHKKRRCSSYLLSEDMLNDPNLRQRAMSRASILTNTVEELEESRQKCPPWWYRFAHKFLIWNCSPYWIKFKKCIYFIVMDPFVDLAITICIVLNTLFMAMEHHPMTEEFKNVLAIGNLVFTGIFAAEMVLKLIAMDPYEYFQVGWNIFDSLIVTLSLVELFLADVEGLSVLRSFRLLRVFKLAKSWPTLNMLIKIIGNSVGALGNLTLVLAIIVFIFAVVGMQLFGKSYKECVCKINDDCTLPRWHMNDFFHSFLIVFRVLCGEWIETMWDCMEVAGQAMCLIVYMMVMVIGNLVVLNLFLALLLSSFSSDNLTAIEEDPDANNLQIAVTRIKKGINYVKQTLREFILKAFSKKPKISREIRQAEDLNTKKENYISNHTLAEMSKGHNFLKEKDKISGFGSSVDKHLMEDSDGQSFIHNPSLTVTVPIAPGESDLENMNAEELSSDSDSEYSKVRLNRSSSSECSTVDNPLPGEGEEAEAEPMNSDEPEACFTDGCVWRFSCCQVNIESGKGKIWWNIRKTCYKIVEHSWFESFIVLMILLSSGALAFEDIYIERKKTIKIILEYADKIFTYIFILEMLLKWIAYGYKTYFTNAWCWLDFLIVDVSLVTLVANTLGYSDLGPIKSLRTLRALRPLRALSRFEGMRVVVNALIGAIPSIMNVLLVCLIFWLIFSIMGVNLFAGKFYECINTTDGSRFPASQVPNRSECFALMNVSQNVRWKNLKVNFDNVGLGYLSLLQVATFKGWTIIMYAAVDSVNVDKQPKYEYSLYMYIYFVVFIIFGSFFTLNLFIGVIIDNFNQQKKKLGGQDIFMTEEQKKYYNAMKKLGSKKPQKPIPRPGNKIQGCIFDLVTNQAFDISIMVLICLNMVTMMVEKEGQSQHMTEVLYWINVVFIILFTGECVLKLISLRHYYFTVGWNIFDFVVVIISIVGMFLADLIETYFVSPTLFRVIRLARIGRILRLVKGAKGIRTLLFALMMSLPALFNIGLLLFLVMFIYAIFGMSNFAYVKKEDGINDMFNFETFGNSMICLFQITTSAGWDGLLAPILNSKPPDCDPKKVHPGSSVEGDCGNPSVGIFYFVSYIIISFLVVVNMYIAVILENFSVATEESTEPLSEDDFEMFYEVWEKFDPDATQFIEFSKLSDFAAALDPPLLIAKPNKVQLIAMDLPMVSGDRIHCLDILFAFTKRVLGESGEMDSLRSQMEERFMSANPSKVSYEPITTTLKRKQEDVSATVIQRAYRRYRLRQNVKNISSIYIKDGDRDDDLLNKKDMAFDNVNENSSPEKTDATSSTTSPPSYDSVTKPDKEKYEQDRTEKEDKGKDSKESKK

Row | Molecule | inhibition at 0.1 µM (compound at 100 nM) [%] | inhibition at 1 µM (compound at 1000 nM) [%] | other results
1 | O=C(NS(=O)(=O)C1CC1)c1cc(Cl)c(CN2CCN(Cc3ccc(Cl)cc3)CC2)cc1F [Compound C6, reference compound] | 11.2 | 57.2 | –
2 | Cc1cc(C(=O)N2CCN(Cc3cc(F)c(C(=O)NS(=O)(=O)C4CC4)cc3Cl)CC2)ccc1Cl [Compound C3, reference compound] | 17.6 | 52.3 | –
3 | Cc1c(F)c(F)cc(N2CCN(Cc3cc(F)c(C(=O)NS(=O)(=O)C4CC4)cc3Cl)CC2)c1F [Compound Z-182] | 77.2 | 97.6 | –
4 | O=C(NS(=O)(=O)C1CC1)c1cc(C2CC2)c(OC[C@H]2CCCN2c2ccc(C(F)(F)F)cn2)cc1F [Compound Z-142, (R)-5-cyclopropyl-N-(cyclopropylsulfonyl)-2-fluoro-4-((1-(5-(trifluoromethyl)pyridin-2-yl)pyrrolidin-2-yl)methoxy)benzamide] | 92.2 | 97.8 | –
5 | O=C(NS(=O)(=O)C1CC1)c1cc(Cl)c(OC[C@H]2CCCN2C(=O)c2ccc(C(F)(F)F)cc2)cc1F [Compound C10, (R)-5-chloro-N-(cyclopropylsulfonyl)-2-fluoro-4-((1-(4-(trifluoromethyl)benzoyl)pyrrolidin-2-yl)methoxy), reference compound] | 7.83 | 24.7 | –
6 | Cc1c(F)ccc(N2CCN(Cc3cc(F)c(C(=O)NS(=O)(=O)C4CC4)cc3Cl)CC2)c1Cl [Compound Z-184] | 70.3 | 98.5 | –
7 | O=C(NS(=O)(=O)C1CC1)c1cc(C2CC2)c(CN2CCN(c3cc(Cl)cc(Cl)c3)CC2)cc1F [Compound Z-197] | – | – | inhibition at 0.1 µM: 83.6%; inhibition at 1 µM: 100%
8 | Cc1cc(N2CCN(Cc3cc(F)c(C(=O)NS(=O)(=O)C4CC4)cc3Cl)CC2)cc(C)c1F [Compound Z-180] | 70.4 | 97.8 | –
9 | O=C(NS(=O)(=O)C1CC1)c1cc(Cl)c(CN2CCN(C(=O)c3ccc(Cl)cc3)CC2)cc1F [Compound C5, reference compound] | 17.2 | 36.8 | –
10 | O=C(NS(=O)(=O)C1CC1)c1cc(Cl)c(CN2CCN(c3ccc(C(F)(F)F)cc3)CC2)cc1F [Compound Z-174] | 78 | 95.1 | –
11 | Cc1c(Cl)ccc(N2CCN(Cc3cc(F)c(C(=O)NS(=O)(=O)C4CC4)cc3Cl)CC2)c1F [Compound Z-188] | 81.8 | 98.1 | –
12 | (cyclopropylsulfonyl)-4-((4-(3,4-dichlorophenyl) piperazin-1-yl)methyl)-2-fluorobenzamide [Compound Z-196] | – | – | Inhibition of Nav1.7 100 nM(%) (compound at 100 nM): 85.03%; Inhibition of Nav1.7 1000 nM(%) (compound at 1000 nM): 93.02%
13 | O=C(NS(=O)(=O)C1CC1)c1cc(Cl)c(OC[C@H]2CCCN2Cc2ccc(C(F)(F)F)cc2)cc1F [Compound C8, (R)-5-chloro-N-(cyclopropylsulfonyl)-2-fluoro-4-((1-(4-(trifluoromethyl)benzyl)pyrrolidin-2-yl)methoxy), reference compound] | 47 | 66.8 | –
14 | CS(=O)(=O)NC(=O)c1cc(C2CC2)c(CN2CCN(Cc3ccc(Cl)c(Cl)c3)CC2)cc1F [Compound C2, reference compound] | 49.2 | 64.8 | inhibitory activity against Nav1.7 (in words): significantly reduced
15 | CCc1cc(C(=O)NS(=O)(=O)C2CC2)c(F)cc1CN1CCN(c2ccc(Cl)c(Cl)c2)CC1 [Compound Z-191] | 73.3 | 95 | –
16 | O=C(NS(=O)(=O)C1CC1)c1cc(Cl)c(OC[C@H]2CCCN2Cc2ccc(Cl)cc2)cc1F [Compound C7, (R)-5-chloro-4-((1-(4-chlorobenzyl)pyrrolidin-2-yl)methoxy)-N-(cyclopropylsulfonyl), reference compound] | – | – | inhibition at 0.1 µM: 31.1%; inhibition at 1 µM: 67.5%
17 | Cc1cc(N2CCN(Cc3cc(F)c(C(=O)NS(=O)(=O)C4CC4)cc3Cl)CC2)cc(C)c1Cl [Compound Z-185] | 85.3 | 94.9 | –
18 | CCc1cc(C(=O)NS(=O)(=O)C2CC2)c(F)cc1CN1CCN(c2cc(Cl)cc(Cl)c2)CC1 [Compound Z-192] | 77.7 | 98.4 | –
19 | CS(=O)(=O)NC(=O)c1cc(C2CC2)c(CN2CCN(Cc3cc(Cl)cc(Cl)c3)CC2)cc1F [Compound C11, reference compound] | 23.1 | 51.9 | inhibitory activity against Nav1.7 (in words): significantly reduced
20 | CCc1cc(C(=O)NS(=O)(=O)C2CC2)c(F)cc1CN1CCN(c2ccc(Cl)c(F)c2)CC1 [Compound Z-193] | 72.6 | 95.7 | –
21 | O=C(NS(=O)(=O)C1CC1)c1cc(Cl)c(OC[C@H]2CCCN2C(=O)c2ccc(Cl)cc2)cc1F [Compound C9, (R)-5-chloro-4-((1-(4-chlorobenzoyl)pyrrolidin-2-yl)methoxy)-N-(cyclopropylsulfonyl), reference compound] | 5.49 | 29.1 | –
22 | Cc1cc(CN2CCN(Cc3cc(F)c(C(=O)NS(=O)(=O)C4CC4)cc3Cl)CC2)ccc1Cl [Compound C4, 5-chloro-4-((4-(4-chloro-3-methylbenzyl)piperazin-1-yl)methyl)-N-(cyclopropylsulfonyl)-2-fluorobenzamide, reference compound] | 18.6 | 58.9 | inhibitory activity against Nav1.7 (in words): significantly reduced
23 | O=C(NS(=O)(=O)C1CC1)c1cc(C2CC2)c(CN2CCN(Cc3cc(Cl)cc(Cl)c3)CC2)cc1F [Compound C1, reference compound] | – | – | inhibitory activity against Nav1.7 (in words): significantly reduced; inhibition at 0.1 µM: 52%; inhibition at 1 µM: 64%
24 | O=C(NS(=O)(=O)C1CC1)c1cc(Cl)c(OC[C@H]2CCCN2c2ccc(C(F)(F)F)cn2)cc1F [Compound Z-150, (R)-5-chloro-N-(cyclopropylsulfonyl)-2-fluoro-4-((1-(5-(trifluoromethyl)pyridin-2-yl)pyrrolidin-2-yl)methoxy)benzamide] | 93.3 | 96.7 | –
